Laboratory results as given in patent EP0727211A1, “Use of src SH2 specific compounds to treat a bone resorption disease” (SMITHKLINE BEECHAM CORPORATION, priority 1995, dated 1996).

Molecular target: T1, human lck SH2 domain (Homo sapiens, UniProt P06239)
T1 construct: Cloning and expression of human lck SH2 domain containing tags and an enterokinase proteolytic cleavage site; made in house; host or cells: E. coli AR120
Test: SH2 domain / pY peptide binding assay (ELISA-based, 96 well plate), lck SH2
Details: for Ki: Ki calculated from IC50 by the expanded equation, Table II; for IC50: cloned human SH2 domain fusion protein, 0.1 uM biotinylated pY peptide, Table I
Experimental: The inhibitory activity of compounds at the different human SH2 domains was determined in vitro using SH2 domains expressed as fusion proteins in E. coli. The SH2 domains used herein were the human forms of the src SH2 domain, Grb2 SH2 domain, lck SH2 domain, fyn SH2 domain, SH-PTP2 SH2 domain, p85 SH2 domain and hcp SH2 domain.
The fusion proteins containing the src, lck and hcp SH2 domains were expressed as the general sequence: DET1-DET2-spacer-ek-SH2, where DETI, DET2, spacer, ek and SH2 are as described below. DET1 ("defined epitope tag 1") (SEQ ID NO: 1) is an 11 amino acid sequence found in the Human Immunodeficiency Virus Type 1 (HIV-1) envelope protein gp120 (or gp160). Monoclonal antibodies to various epitopes of HIV-1 gp120 (or gp160) are known in the art, see, for example U.S. Patent 5,166,050. One preferred example is monoclonal antibody 178.1 (see, e.g., Thiriart et al., J. Immunol., 143:1832-1836 (1989)), which was prepared by immunization of mice with a yeast-expressed HIV-1 gp160 molecule from strain BH10 (Ratner et al., Nature, 313:277-284 (1985)). This tag was used for detection of expression (by Western blot), for purification of the protein (by affinity chromatography), and for configuring assays in which the fusion protein was captured or immobilized using the 178.1 antibody. DET2 is a hexahistidine sequence tag (SEQ ID NO: 2) which binds to nickel-containing resins and was used for purification purposes. Spacer (SEQ ID NO: 3) was utilized to design a BamH1 restriction site at the indicated position of the construct. The term -ekrefers to a recognition sequence (SEQ ID NO: 4) for the enterokinase protease which provides for the optional removal of the tags from the SH2 domain, thus producing an SH2 domain that contains no extraneous amino acids. SH2 domains which contain no extraneous amino acids are preferable to tagged protein for crystallography studies. SH2 refers to the SH2 domains of different proteins.
Cloning and expression of human lck SH2 domain containing tags and an enterokinase proteolytic cleavage site (DET1-DET2-spacer-ek-lck SH2).
A DNA sequence encoding protein ek-lck SH2 was PCR amplified from a cDNA clone containing the human lck gene (Genbank accession number M36881) using the following primers: [formula]
The PCR product was digested with BamHI and XbaI, followed by isolation of the digested fragment on an agarose gel. The fragment was ligated into BamHI-XbaI-digested expression vector containing the tagged chicken src gene DET1-DET2-spacer-SH2 described in Procedure 1 above. In that vector, the BamHI site is located in between the coding regions for DET2 and SH2, and the XbaI site is located after the 3' end of the SH2 coding region. Thus, the ek-lck SH2 sequence replaced the src SH2 sequence in the above vector. The ligation reaction was used to transform E. coli MM294cI^+. The construct containing […] was confirmed by DNA sequencing (SEQ ID NO: 6) and induced in E. coli strain AR120 as described in Procedure 1 above. A Coomassie-Blue-stained, Western-blot-positive induced protein band with an apparent molecular weight of 17,000 was observed after nalidixic acid induction.
Cells were lysed at neutral pH by sonication in the presance of lysozyme. After centrifugation, the soluble extract was chromatographed on a Ni^++NTA column. After washing the column with equilibration buffer (Tris buffer pH 8 containing 0.5 M NaCl) and the same buffer containing 15 mM imidazole, the protein was eluted in highly purified form with 25 mM imidazole in equilibration buffer.
The binding assays for the SH2 domains and pY peptides were performed in an ELISA-based 96 well plate assay. In Millipore 96 well filter plates, hydrophilic Durapore® (pore size 0.65um Cat. No. MADVN6550), was added 2 ul (50% suspension) of Protein-G Sepharose (available from Pharmacia of N.J. Cat. No. 17-0618-01) and either 2 ul of 2 mg/ml of MAB178. […]

T1 sequence (P06239 127-224 limits assumed): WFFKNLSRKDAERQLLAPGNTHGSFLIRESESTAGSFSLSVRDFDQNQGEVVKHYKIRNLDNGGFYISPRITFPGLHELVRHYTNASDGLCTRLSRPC

| Compound | Ki [µM] | IC50 [µM] |
| --- | --- | --- |
| Cc1nc2sc3c(c2c2[nH][nH]c(=O)c12)CCC1(C3)OCCO1 [Compound 3, 8,8-Ethylenedioxy-2,3,7,8,9,10-hexahydro-4-methyl-1H-benzo[b]thieno[2,3-b]pyrazolo[3,4-d]pyridin-3-one] | 11 | 22.9 |
| Cc1nnc(SCC2=C(C(=O)O)N3C(=O)[C@@H](NC(=O)C(N)c4ccc(C(=O)O)cc4)[C@H]3SC2)s1 (stereo partly drawn) [Compound 1, 7-[D,L-α-Amino-α-(4-carboxyphenyl)acetamido]-3-[2-(5-methyl-1,3,4-thiadiazolyl)thiomethyl]Δ^3-cephem-4-carboxylic Acid] | – | 6 |
| N[C@@H](Cc1cc(Br)c(Oc2ccc(O)c(Cc3ccc(O)nn3)c2)c(Br)c1)C(=O)O [Compound 2, L-3,5-Dibromo-3'-(6-oxo-3(1H)-pyridazinylmethyl)-thyronine] | > 1000 | > 300 |
| 4-acetamido-benzamido-trans-4-methyl-cyclohexyl-N-1-(amino-R-2-(methoxy methyl)-pyrrolidine) carboxamide [Compound 8] | 360 | 126 |

Continued, values first:

| Ki [µM] | IC50 [µM] | Compound |
| --- | --- | --- |
| 163 | 163 | Cc1ccc(C(=O)c2ccc(C(=O)c3ccc(CC=O)cc3)cc2)cc1 [Compound 4, 4-[4-(4-Methylbenzoyl)benzoyl]phenylacetaldehyde] |
| 146 | 200 | CCCNC(=O)[C@H]1CC[C@H](CNC(=O)/C=C/c2ccc(C=O)cc2)CC1 [Compound 9, 4-formyl-E-cinnamido-trans-4-methyl-cyclohexyl-N-(propyl) carboxamide] |
| 149 | 100 | Cc1nc2sc3c(c2c2c1c(=O)[nH]n2C)CCC1(C3)OCCO1 [Compound 5, 1,4-Dimethyl-8,8-ethylenedioxy-2,3,7,8,9,10-hexahydro-1H-benzo[b]thieno[2,3-b]pyrazolo[3,4-d]pyridin-3-one] |
| 320 | 383 | CCCCCCNC(=O)[C@H]1CC[C@H](CNC(=O)c2ccc([N+](=O)[O-])cc2)CC1 [Compound 7, 4-nitro-benzamido-trans-4-methyl-cyclohexyl-N-hexyl carboxamide] |
